Values of other authors, collected in publication PMC5354814, “In silico and in vitro drug screening identifies new therapeutic approaches for Ewing sarcoma” (Oncotarget, 2016).
Entries after “also recorded” stand apart in the source; their conditions may differ. Where two headings read alike, the source gives them in different places.

Key:
[1] = tested on: ovarian cancer; design: method as in PMID 25502607; settings: 3 mg auranofin orally twice per day, 10 patients, 95% CI: 1.3–3.8; cited from earlier work
[2] = cited from earlier work; for LD50: PO
[3] = cited from earlier work; for tumors of the renal tubular epithelium: 12-month study, rats
[4] = tested on: mouse lymphoma; design: method as in ref 18, ref 19; settings: 313 to 700 ng/mL, in the presence of a rat liver microsomal preparation; cited from earlier work
[5] = tested on: Salmonella; design: method as in ref 18, ref 19; settings: cited from earlier work
[6] = tested on: BALB/3T3 cell; design: method as in ref 18, ref 19; settings: cited from earlier work
[7] = design: method as in ref 18, ref 19; settings: cited from earlier work
[8] = cited from earlier work
[9] = cited from earlier work; for grossly malformed fetuses: rabbits, days 6-18 of pregnancy
[10] = cited from earlier work; remark: listed apart in the source
[11] = design: method as in ref 19 (a number printed in a supplementary file, which may have a reference list of its own: not looked up in the article's list); settings: dog, cited from earlier work
[12] = tested on: human monocyte; design: method as in ref 19 (a number printed in a supplementary file, which may have a reference list of its own: not looked up in the article's list); settings: 0.1 - 1.0 µg auranofin/mL; cited from earlier work
[13] = tested on: mouse L929 fibroblasts; design: method as in ref 19 (a number printed in a supplementary file, which may have a reference list of its own: not looked up in the article's list); settings: 1µM auranofin; cited from earlier work
[14] = tested on: human monocytes; design: method as in ref 19 (a number printed in a supplementary file, which may have a reference list of its own: not looked up in the article's list); settings: 0.125 µg auranofin/mL; cited from earlier work
[15] = design: method as in ref 19 (a number printed in a supplementary file, which may have a reference list of its own: not looked up in the article's list); settings: 5 and 10 µg gold/kg for 2 weeks; cited from earlier work
[16] = design: method as in ref 19 (a number printed in a supplementary file, which may have a reference list of its own: not looked up in the article's list); settings: cited from earlier work
[17] = design: method as in ref 19 (a number printed in a supplementary file, which may have a reference list of its own: not looked up in the article's list); settings: 2.5 µg/mL; cited from earlier work
[18] = tested on: Rhesus monkey lung; design: method as in ref 19 (a number printed in a supplementary file, which may have a reference list of its own: not looked up in the article's list); settings: 1.5 x 10^-4M; cited from earlier work
[19] = tested on: Rhesus monkey skin; design: method as in ref 19 (a number printed in a supplementary file, which may have a reference list of its own: not looked up in the article's list); settings: 1.5 x 10^-4M; cited from earlier work
[20] = tested on: rat lung; design: method as in ref 19 (a number printed in a supplementary file, which may have a reference list of its own: not looked up in the article's list); settings: 1.5 x 10^-4M; cited from earlier work
[21] = design: method as in ref 19 (a number printed in a supplementary file, which may have a reference list of its own: not looked up in the article's list); settings: dogs, 0.6 - 1.2 mg auranofin/kg p.o.; cited from earlier work
[22] = design: method as in ref 19 (a number printed in a supplementary file, which may have a reference list of its own: not looked up in the article's list); settings: rats, up to 15 mg gold/kg p.o.; cited from earlier work
[23] = design: method as in ref 19 (a number printed in a supplementary file, which may have a reference list of its own: not looked up in the article's list); settings: rats, cited from earlier work

Structure (SMILES): CC(=O)OC[C@H]1O[C@@H]([S-])[C@H](OC(C)=O)[C@@H](OC(C)=O)[C@@H]1OC(C)=O.CCP(CC)CC.[Au+] [Auranofin, auranofin]
- median PFS [1]: 2.8 months
- LD50 ([2]; Mouse B6C3F1, F): 187 mg/kg
- LD50 ([2]; Mouse B6C3F1, M): 190 mg/kg
- LD50 ([2]; Mouse CF1, F): 225 mg/kg
- acute oral LD50 ([2]; adult mice): 310 mg/kg
- tumors of the renal tubular epithelium ([3]; 3.6 mg/kg/day): did not
- tumors of the renal tubular epithelium ([3]; 23 mg/kg/day): tum ors of the renal tubular epithelium; also recorded: developed adenomas of the renal tubular epithelium
- frequency of renal tubular cell karyomegaly and cytomegaly and renal adenoma ([3]; 24-month study in rats, auranofin 1.0 or 2.5 mg/kg/day orally, gold sodium thiomalate 2 or 6 mg/kg twice weekly): significant incr ease
- mutation frequencies [4]: induced increases in the mutation frequencies
- mutation effects [5]: no m utation effects
- mutation effects [6]: no m utation effects
- mutation effects [7]: no m utation effects
- findings in pregnant rats ([8]; 2.5 mg/kg/day): No such effects were found
- findings in pregnant rats ([8]; 5 mg/kg/day): increase above controls in the inc idence of resorptions and a decrease in litter size
- perinatal and postnatal study findings, high dose group ([8]; female rats, 8 mg/kg/day, last trimester and lactation): An increase in fetal resorption
- general reproductive performance ([8]; female rats, oral 0.25, 0.75 and 3.0 mg/kg/day): no adverse effect on estrous cyclicity
- litter size, birth weight or viability of the offspring ([8]; female rats, oral 0.5, 2.5 and 5 mg/kg/day, days 6-15 of pregnancy): no effect on litter size
- teratogenicity in rabbits ([9]; oral 0.5, 3 and 6 mg/kg/day): teratogenic potential
- grossly malformed fetuses ([9]; 0.5 mg/kg/day (low)): 1.9%
- grossly malformed fetuses ([9]; 3 mg/kg/day (middle)): 4.7%
- grossly malformed fetuses ([9]; 6 mg/kg/day (high)): 15.5%
- teratogenic effects in pregnant mice ([10]; 5 mg/kg/day): no ter atogenic
- embryotoxic or teratogenic effect in mice ([10]; oral 0.2, 1 and 5 mg/kg/day, days 6-15 of pregnancy): no embryotoxic or teratogenic effect
- absorption after oral dosing [11]: 26%
- blood gold in plasma proteins [11]: 17%
- blood gold in red blood cells [11]: 82%
- urinary excretion [11]: 16%
- elimination in feces ([11]; within 21 days): 83%
- phagocytosis [12]: inhibited
- ADCC [13]: inhibited
- ADCC of human monocytes [14]: reduced
- hemagglutinating IgG antibodies to SRBC and antibodies to mouse fibroblasts [15]: suppressed
- murine antibody production against SRBC [16]: inconsistent inhibition
- pokeweed mitogen-induced immunoglobulin production [17]: inhibited
- anti-human IgE-induced release of histamine and SRS-A [18]: inhibition
- histamine release [19]: inhibition
- ovalbumin antigen-induced release of histamine [20]: inhibition
- antidiuretic effect [21]: not in dogs
- induction of liver enzyme activity [22]: failed to induce liver enzyme activity
- chronic toxicity, histological examination ([23]; oral 3.6, 12 and 23 mg/kg/day, 12 months): dose-related karyomegaly and cytomegaly of the renal tubular epithelial
- subacute toxicity findings ([23]; oral 3.6, 12 and 36 mg/kg/day, 3 months): Dose-related increase in salivation, decrease in hemoglobin
- adenomas of the renal cortical tubular epithelium ([23]; oral, 12 months, 23 mg/kg/day): occurred in 2 females in the high dose
